Tests used:
[1] = target: T1, transfected human CB1 receptor (Homo sapiens, UniProt P21554); test: In-vitro determination of affinity to CB1 receptor, radioligand [^3H]-CP55940; format: binding; conditions: for inhibition at 1 µM: read-out: CB1 Receptor % Inhibition 10^−6 M
T1 construct: purchased Receptor Biology, Inc
Description: (§1) I. In-vitro Determination of Affinity to CB1/CB2-Rezeptors
(§2) The in-vitro determination of the affinity of the inventive substituted azetidine compounds to CB1/CB2-Receptors is carried out as described in the publication of Ruth A. Ross, Heather C. Brockie et al., “Agonist-inverse agonist characterization at CB1 and CB2 cannabinoid receptors of L-759633, L759656 and AM630”, British Journal of Pharmacology, 126, 665-672, (1999). The respective parts of the descriptions are hereby incorporated by reference and form part of the present disclosure. The transfected human CB1 and CB2 receptor are obtained from Receptor Biology, Inc. The radioligand used for both receptors is [^3H]-CP55940.
(§3) The affinity of the inventive substituted azetidine compounds to CB1/CB2 receptors is determined as described above.

[2] = target: T2, transfected human CB2 receptor (Homo sapiens, UniProt P34972); test: In-vitro determination of affinity to CB2 receptor, radioligand [^3H]-CP55940; format: binding; conditions: 10^−6 M
T2 construct: purchased Receptor Biology, Inc
Description: as §1, §2, §3

cannabinoid receptors [3] = test: Mouse tetrad model, agonistic effect (hot plate, hypothermia, catalepsy, sedation); format: in vivo; design: key to Agonistic effect A: Hot-Plate test: % MPE = (PT−B)/(PC−B)×100; key to Agonistic effect D: Sedation: % sedation = mean score (0-3)/3×100; Agonistic effect B: Hypothermia: unit not given here; conditions: 5 mg/kg i.v., male NMRI mice; for Agonistic effect A: Hot-Plate test: 15 minutes after injection; for Agonistic effect B: Hypothermia / Agonistic effect C: Catalepsy / Agonistic effect D: Sedation: 20 minutes after injection
Source text: (§4) Substances with affinity for cannabinoid receptors are known to produce a wide range of pharmacological effects. It is also known that intravenous administration of a substance with affinity for cannabinoid receptors in mice produces analgesia, hypothermia, sedation and catalepsy. Individually, none of these effects can be considered as proof that a tested substance has affinity for cannabinoid-receptors, since all of these effects are common for various classes of centrally active agents. However, substances, which show all of these effects, i.e. substances that are active in this so-called tetrad model are considered to have affinity for the cannabinoid receptors. It has further been shown that cannabinoid receptor antagonists are higly effective in blocking the effects of a cannabinoid agonist in the mouse tetrad model.
(§5) The tetrad model is described, for example, in the publication of A. C. Howlett et al, International Union of Pharmacology XXVII. Classification of Cannabinoid Receptors, Pharmacol Rev 54, 161-202, 2002 and David R. Compton et al., “In-vivo Characterization of a Specific Cannabinoid Receptor Antagonist (SR141716A): Inhibition of Tetrahydrocannbinol-induced Responses and Apparent Agonist Activity”, J. Pharmacol. Exp. Ther. 277, 2, 586-594, 1996. The corresponding parts of the description are hereby incorporated by reference.
(§6) Male NMRI mice with a weight of 20-30 g (Harlan, Barcelona, Spain) are used in all of the following experiments.
(§7) Before testing in the behavioral procedures given below, mice are acclimatized to the experimental setting. Pre-Treatment control values are determined for analgesia hot plate latency (in seconds), rectal temperature, sedation and catalepsy.
(§8) In order to determine the agonistic activty of the substance to be tested, the mice are injected intravenously with the substance to be tested or the vehicle alone. 15 minutes after injection, latency in hot plate analgesia is measured. Rectal temperature, sedation and catalepsy are measured 20 minutes after injection.
(§9) The hot plate analgesia is determined according to the method described in Woolfe D. et al. “The evaluation of analgesic action of pethidine hydrochloride (Demerol)”, J. Pharmacol. Exp. Ther. 80, 300-307, 1944. The respective description is hereby incorporated by reference and forms part of the present disclosure.
(§10) The mice are placed on a hot plate (Harvard Analgesimeter) at 55±0.5° C. until they show a painful sensation by licking their paws or jumping and the time for these sensations to occur is recorded. This reading is considered the basal value (B). The maximum time limit the mice are allowed to remain on the hot plate in absence of any painful response is 40 seconds in order to prevent skin damage. This period is called the cut-off time (PC).
(§11) Fifteen minuts after the administration of the substance to be tested, the mice are again placed on the hot plate and the afore described procedure is repeated. This period is called the post-treatment reading (PT).
(§12) The degree of analgesia is calculated from the formula: % MPE of Analgesia=(PT−B)/(PC−B)×100 • MPE Maximum possible effect. Determination of Sedation and Ataxia
(§13) Sedation and ataxia is determined according to the method described in Desmet L. K. C. et al. “Anticonvulsive properties of.Cinarizine and Flunarizine in Rats and Mice”, Arzneim. -Forsch. (Frug Res) 25, 9, 1975. The respective description is hereby incorporated by reference and forms part of the present disclosure.
The chosen scoring system is • 0: no ataxia; • 1: doubful; • 2: obvious calmness and quiet; • 3 pronounced ataxia; prior to as well as after treatment.
The percentage of sedation is determined according to the formula: % of sedation=arithmetic mean/3×100 Hypothermia: […]

cannabinoid receptors [4] = test: Mouse tetrad model, antagonistic effect against Win 55212-2; format: in vivo; design: unit not given here; conditions: 5 mg/kg i.v. prior to Win 55212-2 1.25 mg/kg i.v.; male NMRI mice
Source text: as §4, §5, §6, §7, §8
In order to determine the antagonistic activity the identical procedure is used as for the determination of the agonistic effects, but with the difference that the substance to be evaluated for its antagonistic activity is injectected 5 minutes before the intravenous injection of 1.25 mg/kg Win-55,212 a known cannabinoid-receptor agonist.
as §9, §10, §11, §12, §13
The chosen scoring system is • 0: no ataxia; • 1: doubful; • 2: obvious calmness and quiet; • 3 pronounced ataxia; prior to as well as after treatment. […]

T1 sequence (P21554 whole entry): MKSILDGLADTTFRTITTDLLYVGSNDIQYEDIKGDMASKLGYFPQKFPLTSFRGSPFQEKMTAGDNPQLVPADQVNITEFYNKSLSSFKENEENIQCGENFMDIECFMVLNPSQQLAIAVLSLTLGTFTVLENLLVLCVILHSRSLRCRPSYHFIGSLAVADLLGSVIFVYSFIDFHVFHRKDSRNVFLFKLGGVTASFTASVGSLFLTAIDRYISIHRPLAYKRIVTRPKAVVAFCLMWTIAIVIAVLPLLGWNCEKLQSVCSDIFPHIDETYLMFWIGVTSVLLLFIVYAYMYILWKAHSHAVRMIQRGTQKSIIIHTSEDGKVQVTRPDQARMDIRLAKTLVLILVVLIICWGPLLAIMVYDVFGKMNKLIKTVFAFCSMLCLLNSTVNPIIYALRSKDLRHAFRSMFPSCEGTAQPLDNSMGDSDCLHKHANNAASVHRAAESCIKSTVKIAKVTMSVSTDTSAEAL
T2 sequence (P34972 whole entry): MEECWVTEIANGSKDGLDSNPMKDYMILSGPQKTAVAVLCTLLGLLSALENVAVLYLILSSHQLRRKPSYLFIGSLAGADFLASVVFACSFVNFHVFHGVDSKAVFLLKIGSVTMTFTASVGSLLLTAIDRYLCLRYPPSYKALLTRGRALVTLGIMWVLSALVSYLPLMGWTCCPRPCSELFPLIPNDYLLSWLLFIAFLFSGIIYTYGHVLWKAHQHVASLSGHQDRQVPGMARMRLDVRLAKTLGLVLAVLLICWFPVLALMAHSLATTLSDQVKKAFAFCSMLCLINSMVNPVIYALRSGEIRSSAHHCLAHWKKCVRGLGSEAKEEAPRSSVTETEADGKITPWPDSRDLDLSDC

Structure (SMILES): C[C@H]1[C@H](NS(=O)(=O)c2cccs2)CN1C(c1ccc(Cl)cc1)c1ccc(Cl)cc1 [Example 6, Thiophene-2-sulfonic acid {(2S,3R)-1-[bis-(4-chloro-phenyl)-methyl]-2-methyl-azetidin-3-yl}-amide]
- inhibition at 1 µM [1]: 66%
- inhibition at 1 µM [2]: 13.5%
- Agonistic effect A: Hot-Plate test (cannabinoid receptors [3]): 0
- Agonistic effect B: Hypothermia (cannabinoid receptors [3]): 0
- Agonistic effect C: Catalepsy (cannabinoid receptors [3]): 0
- Agonistic effect D: Sedation (cannabinoid receptors [3]): 0
- Antagonistic Effect A: Hot-Plate test (cannabinoid receptors [4]): 32
- Antagonistic Effect B: Hypothermia (cannabinoid receptors [4]): 32
- Antagonistic Effect C: Catalepsy (cannabinoid receptors [4]): 51
- Antagonistic Effect D: Sedation (cannabinoid receptors [4]): 46
- melting point: 72 to 76 °C

Structure (SMILES): C[C@H]1[C@H](NS(=O)(=O)c2ccc(F)cc2)CN1C(c1ccc(Cl)cc1)c1ccc(Cl)cc1 [Example 5, (2S, 3R)-N-{1-[Bis-(4-chlorophenyl)methyl]-2-methylazetidin-3-yl}-4-fluoro-benzene sulfonamide]
- Ki ([1]; radioligand [^3H]-CP55940): 264 nM
- inhibition at 1 µM [1]: 59%
- inhibition at 1 µM [2]: 4.6%
- Agonistic effect A: Hot-Plate test (cannabinoid receptors [3]): 2
- Agonistic effect B: Hypothermia (cannabinoid receptors [3]): 0
- Agonistic effect C: Catalepsy (cannabinoid receptors [3]): 0
- Agonistic effect D: Sedation (cannabinoid receptors [3]): 0
- Antagonistic Effect A: Hot-Plate test (cannabinoid receptors [4]): 77
- Antagonistic Effect B: Hypothermia (cannabinoid receptors [4]): 100
- Antagonistic Effect C: Catalepsy (cannabinoid receptors [4]): 71
- Antagonistic Effect D: Sedation (cannabinoid receptors [4]): 57
- melting point: 154 to 157 °C
